Laboratory results taken from patent US12492188B2, “1H-benzo[D]imidazole derivatives as TLR9 inhibitors for the treatment of fibrosis” (BRISTOL-MYERS SQUIBB COMPANY, priority 2020, dated 2025).
pIC50: −log10 of the molar value. Like-named read-outs stand apart in the source and are kept apart here.

Assays:
Assay type in all cases: cell-based
[1] = biological target: T1, human TLR8 (Homo sapiens, UniProt Q9NR97); test: TLR8 inhibition reporter assay (HEK-Blue cells, secreted embryonic alkaline phosphatase reporter); conditions: HEK-Blue cells overexpressing human TLR8, stimulated with R848 15.9 μM; read-out: TLR 8 IC50
T1 construct: host or cells: HEK-Blue cells (HEK293-derived reporter line)
T1 sequence (Q9NR97 27-1041): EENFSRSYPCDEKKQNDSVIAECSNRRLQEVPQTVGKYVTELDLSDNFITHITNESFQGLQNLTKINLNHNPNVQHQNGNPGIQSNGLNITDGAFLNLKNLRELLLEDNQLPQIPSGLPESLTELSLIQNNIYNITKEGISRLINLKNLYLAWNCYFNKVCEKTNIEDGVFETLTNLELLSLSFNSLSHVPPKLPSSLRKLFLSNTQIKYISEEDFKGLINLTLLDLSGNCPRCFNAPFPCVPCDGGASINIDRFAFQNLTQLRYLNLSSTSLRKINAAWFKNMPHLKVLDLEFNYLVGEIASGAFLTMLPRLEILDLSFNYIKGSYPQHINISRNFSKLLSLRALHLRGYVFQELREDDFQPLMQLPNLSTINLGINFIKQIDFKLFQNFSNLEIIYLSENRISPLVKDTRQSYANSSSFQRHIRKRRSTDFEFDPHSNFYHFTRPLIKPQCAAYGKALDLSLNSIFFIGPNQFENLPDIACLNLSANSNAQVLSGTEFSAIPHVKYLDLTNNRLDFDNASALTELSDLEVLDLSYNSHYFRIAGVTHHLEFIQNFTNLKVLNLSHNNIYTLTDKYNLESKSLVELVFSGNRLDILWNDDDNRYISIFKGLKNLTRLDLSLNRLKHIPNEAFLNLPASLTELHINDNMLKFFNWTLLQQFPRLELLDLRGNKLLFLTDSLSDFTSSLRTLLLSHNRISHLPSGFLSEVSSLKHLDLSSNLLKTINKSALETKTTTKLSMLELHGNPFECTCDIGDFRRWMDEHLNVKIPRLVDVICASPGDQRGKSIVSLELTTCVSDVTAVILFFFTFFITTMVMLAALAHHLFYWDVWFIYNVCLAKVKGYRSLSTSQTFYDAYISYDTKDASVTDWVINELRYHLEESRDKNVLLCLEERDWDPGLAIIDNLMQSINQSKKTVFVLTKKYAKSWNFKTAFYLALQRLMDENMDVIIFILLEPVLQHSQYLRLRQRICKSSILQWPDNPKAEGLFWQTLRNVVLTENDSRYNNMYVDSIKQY
In short: (§1)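 Cells seeded at 15000 (TLR7), 20,000 (TLR8) or 25,000 (TLR9) per well; compound 0.05 nM–50 μM, 30 min RT pre-incubation. Agonists: gardiquimod 7.5 μM, R848 15.9 μM, ODN2006 5 nM respectively. 22 h, 37 °C; SEAP via HEK-Blue Detection; % inhibition vs agonist+DMSO and known-inhibitor wells.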

[2] = biological target: T2, human TLR9 (Homo sapiens, UniProt Q9NR96); test: TLR9 inhibition reporter assay (HEK-Blue cells, secreted embryonic alkaline phosphatase reporter)
T2 construct: host or cells: HEK-Blue cells (HEK293-derived reporter line)
T2 sequence (Q9NR96 26-1032): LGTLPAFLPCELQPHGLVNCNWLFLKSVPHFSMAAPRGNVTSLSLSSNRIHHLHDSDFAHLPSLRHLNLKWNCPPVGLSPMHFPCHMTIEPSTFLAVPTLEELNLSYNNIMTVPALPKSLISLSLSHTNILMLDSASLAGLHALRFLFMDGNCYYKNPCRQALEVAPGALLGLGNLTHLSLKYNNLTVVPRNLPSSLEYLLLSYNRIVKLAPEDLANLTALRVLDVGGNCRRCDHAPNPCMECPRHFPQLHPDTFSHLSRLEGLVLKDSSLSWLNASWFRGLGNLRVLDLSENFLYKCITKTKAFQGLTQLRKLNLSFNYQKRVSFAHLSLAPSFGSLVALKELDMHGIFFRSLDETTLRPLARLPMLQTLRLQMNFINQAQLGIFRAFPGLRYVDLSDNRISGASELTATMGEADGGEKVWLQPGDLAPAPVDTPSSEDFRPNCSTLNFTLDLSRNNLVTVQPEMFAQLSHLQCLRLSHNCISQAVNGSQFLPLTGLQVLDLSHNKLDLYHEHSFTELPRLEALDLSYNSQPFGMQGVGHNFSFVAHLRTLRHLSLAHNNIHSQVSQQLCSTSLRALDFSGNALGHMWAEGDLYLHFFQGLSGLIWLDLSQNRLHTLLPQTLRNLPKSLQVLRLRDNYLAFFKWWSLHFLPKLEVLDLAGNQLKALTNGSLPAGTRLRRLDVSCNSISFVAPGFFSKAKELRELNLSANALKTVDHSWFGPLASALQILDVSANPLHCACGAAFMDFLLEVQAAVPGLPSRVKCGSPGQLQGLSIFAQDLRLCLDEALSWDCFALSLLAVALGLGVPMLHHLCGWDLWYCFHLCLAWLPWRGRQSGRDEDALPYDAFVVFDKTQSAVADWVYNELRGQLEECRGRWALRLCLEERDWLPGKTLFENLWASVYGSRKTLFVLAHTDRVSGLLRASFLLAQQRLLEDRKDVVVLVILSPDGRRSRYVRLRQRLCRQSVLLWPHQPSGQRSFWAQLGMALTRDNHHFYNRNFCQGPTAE
In short: as §1

[3] = biological target: T3, human TLR7 (Homo sapiens, UniProt Q9NYK1); test: TLR7 inhibition reporter assay (HEK-Blue cells, secreted embryonic alkaline phosphatase reporter); conditions: HEK-Blue cells overexpressing human TLR7, stimulated with gardiquimod 7.5 μM; read-out: TLR 7 IC50
T3 construct: host or cells: HEK-Blue cells (HEK293-derived reporter line)
T3 sequence (Q9NYK1 27-1049): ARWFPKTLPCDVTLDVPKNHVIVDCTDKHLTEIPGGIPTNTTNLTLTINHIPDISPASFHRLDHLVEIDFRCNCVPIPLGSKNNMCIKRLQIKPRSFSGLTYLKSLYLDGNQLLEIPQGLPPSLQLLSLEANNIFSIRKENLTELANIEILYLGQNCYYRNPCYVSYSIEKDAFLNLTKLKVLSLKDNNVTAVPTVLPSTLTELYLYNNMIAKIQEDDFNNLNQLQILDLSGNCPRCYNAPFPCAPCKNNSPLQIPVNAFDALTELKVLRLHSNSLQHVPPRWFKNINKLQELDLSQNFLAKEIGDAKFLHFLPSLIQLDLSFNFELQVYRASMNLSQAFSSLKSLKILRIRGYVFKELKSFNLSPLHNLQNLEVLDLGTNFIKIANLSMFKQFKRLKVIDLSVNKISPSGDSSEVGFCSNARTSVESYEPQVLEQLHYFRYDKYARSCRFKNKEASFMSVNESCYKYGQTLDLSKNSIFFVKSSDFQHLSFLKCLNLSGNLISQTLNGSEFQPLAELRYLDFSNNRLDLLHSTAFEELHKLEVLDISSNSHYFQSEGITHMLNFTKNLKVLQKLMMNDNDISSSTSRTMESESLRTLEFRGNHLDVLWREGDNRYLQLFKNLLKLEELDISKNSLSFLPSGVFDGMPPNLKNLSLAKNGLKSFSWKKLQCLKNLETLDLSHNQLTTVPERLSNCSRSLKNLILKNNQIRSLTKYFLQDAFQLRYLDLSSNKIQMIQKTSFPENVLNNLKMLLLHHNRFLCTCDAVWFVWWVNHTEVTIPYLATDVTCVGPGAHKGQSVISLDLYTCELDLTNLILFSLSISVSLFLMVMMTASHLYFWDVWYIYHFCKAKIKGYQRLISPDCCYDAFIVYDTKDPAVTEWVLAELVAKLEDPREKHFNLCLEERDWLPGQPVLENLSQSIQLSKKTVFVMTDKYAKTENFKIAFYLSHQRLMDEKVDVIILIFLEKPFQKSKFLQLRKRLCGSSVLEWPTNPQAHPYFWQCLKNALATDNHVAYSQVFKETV
In short: as §1

[4] = HEK-Blue cells overexpressing human TLR9, stimulated with ODN2006 5 nM, 22 hour incubation, reporter readout
[5] = HEK-Blue cells overexpressing human TLR9, stimulated with ODN2006 5 nM, read-out: TLR 9 IC50

Compound | pIC50 [1] | pIC50 [2, 4] | pIC50 [2, 5] | pIC50 [3] | pIC50 [2]
Cn1c(-c2ccc(S(C)(=O)=O)cc2)nc2c(F)cc(C3CCN(C4CCCN(C5COC5)CC4)CC3)cc21 (single isomer, unassigned) [Example 108, 4-fluoro-1-methyl-2-(4-(methylsulfonyl)phenyl)-6-(1-(1-(oxetan-3-yl)azepan-4-yl)piperidin-4-yl)-1H-benzo[d]imidazole] | < 4.30 | 6.59 | 7.59 | 4.62 | –
Cc1cc(C2CCN(C3CCCN(C4CCC4)CC3)CC2)cc2c1nc(-c1ccc(S(C)(=O)=O)cc1)n2C (single isomer, unassigned) [Example 110, 6-(1-(1-cyclobutylazepan-4-yl)piperidin-4-yl)-1,4-dimethyl-2-(4-(methylsulfonyl)phenyl)-1H-benzo[d]imidazole] | < 4.30 | 7.08 | – | 5.92 | –
Cc1cc(C2CCN(C3CCCN(C4CCC4)CC3)CC2)cc2c1nc(-c1ccc(S(C)(=O)=O)cc1)n2C (single isomer, unassigned) [Example 111, 6-(1-(1-cyclobutylazepan-4-yl)piperidin-4-yl)-1,4-dimethyl-2-(4-(methylsulfonyl)phenyl)-1H-benzo[d]imidazole] | < 4.30 | 7.62 | – | 5.82 | –
CC(C)N1CCCC(N2CCC(c3ccc4nc(-c5ccc(S(C)(=O)=O)cc5)n(C)c4c3F)CC2)CC1 (single isomer, unassigned) [Example 113, 7-fluoro-6-(1-(1-isopropylazepan-4-yl)piperidin-4-yl)-1-methyl-2-(4-(methylsulfonyl)phenyl)-1H-benzo[d]imidazole] | < 4.30 | 7.49 | – | < 4.30 | –
CC(C)N1CCCC(N2CCC(c3ccc4nc(-c5ccc(S(C)(=O)=O)cc5)n(C)c4c3F)CC2)CC1 (single isomer, unassigned) [Example 114, 7-fluoro-6-(1-(1-isopropylazepan-4-yl)piperidin-4-yl)-1-methyl-2-(4-(methylsulfonyl)phenyl)-1H-benzo[d]imidazole] | 4.78 | 7.89 | – | < 4.30 | –
Cc1cc(C2CCN(C3CC4CCC(C3)N4C3CCC3)CC2)cc2c1nc(-c1ccc(S(C)(=O)=O)c(F)c1)n2C (single isomer, unassigned) [Example 124, 6-(1-(8-cyclobutyl-8-azabicyclo[3.2.1]octan-3-yl)piperidin-4-yl)-2-(3-fluoro-4-(methylsulfonyl)phenyl)-1,4-dimethyl-1H-benzo[d]imidazole] | < 4.30 | 6.24 | 6.24 | 5.51 | –

Further lines, results first:

pIC50 [1] | pIC50 [2, 4] | pIC50 [2, 5] | pIC50 [3] | pIC50 [2] | Compound
< 4.30 | 6.57 | 6.57 | 5.24 | – | CC(C)N1C2CCC1CC(N1CCC(c3cc(F)c4nc(-c5ccc(S(C)(=O)=O)cc5)n(C)c4c3)CC1)C2 (single isomer, unassigned) [Example 107, 4-fluoro-6-(1-(8-isopropyl-8-azabicyclo[3.2.1]octan-3-yl)piperidin-4-yl)-1-methyl-2-(4-(methylsulfonyl)phenyl)-1H-benzo[d]imidazole]
< 4.30 | 7.05 | – | 4.76 | – | Cn1c(-c2ccc(S(C)(=O)=O)cc2)nc2c(F)cc(C3CCN(C4CCCN(C5COC5)CC4)CC3)cc21 (single isomer, unassigned) [Example 109, 4-fluoro-1-methyl-2-(4-(methylsulfonyl)phenyl)-6-(1-(1-(oxetan-3-yl)azepan-4-yl)piperidin-4-yl)-1H-benzo[d]imidazole]
< 4.30 | 7.29 | – | 5.46 | – | CC(C)N1C2CCC1CC(N1CCC(c3cc(F)c4nc(-c5ccc(S(C)(=O)=O)cc5)n(C5CC5)c4c3)CC1)C2 (single isomer, unassigned) [Example 116, 1-cyclopropyl-4-fluoro-6-(1-(8-isopropyl-8-azabicyclo[3.2.1]octan-3-yl)piperidin-4-yl)-2-(4-(methylsulfonyl)phenyl)-1H-benzo[d]imidazole]
< 4.30 | 7.15 | – | 5.66 | – | CC(C)N1C2CCC1CC(N1CCC(c3cc(F)c4nc(-c5ccc(S(C)(=O)=O)cc5)n(C5CC5)c4c3)CC1)C2 (single isomer, unassigned) [Example 117, 1-cyclopropyl-4-fluoro-6-(1-(8-isopropyl-8-azabicyclo[3.2.1]octan-3-yl)piperidin-4-yl)-2-(4-(methylsulfonyl)phenyl)-1H-benzo[d]imidazole]
< 4.60 | – | 7.08 | 4.83 | 7.08 | Cc1cc(C2CCN(C3CC4CCC(C3)N4C3CCC3)CC2)cc2c1nc(-c1ccc(S(C)(=O)=O)cc1)n2C (single isomer, unassigned) [Example 152, 6-(1-(8-cyclobutyl-8-azabicyclo[3.2.1]octan-3-yl)piperidin-4-yl)-1,4-dimethyl-2-(4-(methylsulfonyl)phenyl)-1H-benzo[d]imidazole]
